Measured values as given in a compilation of properties of binary mixtures (doi:10.1021/acs.jced.2c00033).

Assay: xn = mol fraction of the nth substance listed
Details: 100 kPa

CCCC[n+]1ccn(C)c1.[Br-] + O
viscosity [mPa·s]
Details	x1 = 0.05	x1 = 0.0992	x1 = 0.1481	x1 = 0.1979	x1 = 0.2517	x1 = 0.3882
303.15 K	–	–	5.93	8.78	12	–
313.15 K	1.56	2.58	4.3	6.08	8.65	–
323.15 K	1.27	2.06	3.43	4.79	6.49	–
333.15 K	–	–	2.71	–	–	–
343.15 K	0.888	1.37	2.2	2.91	3.89	7.98

O + CCCC[n+]1ccn(C)c1.[Br-]
x2 = 0
Details	viscosity [mPa·s]
313.15 K	0.684
323.15 K	0.58
333.15 K	0.492
343.15 K	0.429

O + CC[n+]1ccn(C)c1.[Br-]
x2 = 0
Details	viscosity [mPa·s]
313.15 K	0.684
333.15 K	0.492

CCCn1cc[n+](C)c1.[Br-] + O
viscosity [mPa·s]
Details	303.15 K	313.15 K	323.15 K	333.15 K	343.15 K
x1 = 0.0497	1.67	1.31	–	0.899	0.767
x1 = 0.0992	3.1	2.39	1.9	1.55	1.29
x1 = 0.1984	7.88	5.81	4.46	3.53	2.81
x1 = 0.4005	–	19.6	13.9	10.2	7.82
x1 = 0.5756	87.4	52.6	34	23.2	16.7

O + CCCn1cc[n+](C)c1.[Br-]
x2 = 0
Details	viscosity [mPa·s]
303.15 K	0.834
313.15 K	0.684
323.15 K	0.58

CC[n+]1ccn(C)c1.[Br-] + O
viscosity [mPa·s]
Details	x1 = 0.049	x1 = 0.0997	x1 = 0.1466	x1 = 0.1978	x1 = 0.2501	x1 = 0.3881	x1 = 0.543
303.15 K	–	2.42	3.55	–	6.71	13	28.2
313.15 K	1.14	1.9	2.72	4.1	5.07	9.59	19.4
323.15 K	0.944	1.57	2.21	3.27	3.99	7.31	14.3
333.15 K	–	1.3	1.85	2.66	3.21	5.76	11.1
343.15 K	0.688	1.12	1.53	2.2	2.65	4.59	8.6
